The record followed here is paper PMC9410537, “Discovery of Ircinianin Lactones B and C—Two New Cyclic Sesterterpenes from the Marine Sponge Ircinia wistarii” (Marine Drugs, 2022).

In this test the test system is P. falciparum NF54 strain. Nature of the test: In vitro activity against erythrocytic stages of P. falciparum (3H-hypoxanthine incorporation assay). In kind it is cell-based. The settings on record: Plasmodium falciparum, Table 2 values are means of two independent assays. On the procedure: Activity against P. falciparum. In vitro activity against erythrocytic stages of P. falciparum was determined using a ^3H-hypoxanthine incorporation assay against the drug-sensitive NF54 strain [76]. Compounds were dissolved in DMSO at 10 mg/mL and further diluted in medium before being added to parasite cultures incubated in RPMI 1640 medium without hypoxanthine, supplemented with HEPES (5.94 g/L), NaHCO3 (2.1 g/L), neomycin (100 U/mL), Albumax^R (5 g/L) and washed human red cells A^+ at 2.5% haematocrit (0.3% parasitaemia). Serial drug dilutions ranged from 100 to 0.002 μg/mL. The 96-well plates were incubated in a humidified atmosphere at 37 °C; 4% CO2, 3% O2, 93% N2. After 48 h 50 μL of ^3H-hypoxanthine (=0.5 μCi) was added to each well of the plate. The plates were incubated for a further 24 h under the same conditions. The plates were then harvested with a Betaplate™ cell harvester (Wallac, Zurich, Switzerland) and the red blood cells were transferred onto a glass fiber filter then washed with distilled water. The dried filters were inserted into a plastic foil with 10 mL of scintillation fluid and counted in a Betaplate™ liquid scintillation counter (Wallac, Zurich, Switzerland). IC50 values were calculated from sigmoidal inhibition curves by linear regression using Microsoft Excel. Chloroquine diphosphate (Sigma C6628) was used as control (IC50 0.006 ± 0.002 μM).

As for `CC1=C[C@@H](/C=C(\C)CCCc2ccoc2)[C@]2(OC(=O)C(C)=C2O)[C@@H]2[C@@H](C)CC[C@@H]12` [compound 1, Ircinianin], the 50% inhibitory concentration (IC50) (in general, the concentration needed to halve the response being measured) amounted to 25.4 µM.
